The results in this text go back to PMC6934184, “Selective DNA-PKcs inhibition extends the therapeutic index of localized radiotherapy and chemotherapy” (The Journal of Clinical Investigation, 2019).

This assay deals with T1, CLK1 (Homo sapiens, UniProt P49759).
T1 construct: purchased Thermo Fisher Scientific (Life Technologies) SelectScreen
Kind of assay: SelectScreen Z'LYTE. The format is biochemical. Summed up: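 NU5455 was profiled across the SelectScreen Broad panel of kinase activity and binding assays. Z'LYTE reactions such as CSF1R ran at apparent Km ATP, while the Adapta CAMK1 assay used ATP listed as 10. Values are given as percent.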

T1 sequence (P49759 whole entry): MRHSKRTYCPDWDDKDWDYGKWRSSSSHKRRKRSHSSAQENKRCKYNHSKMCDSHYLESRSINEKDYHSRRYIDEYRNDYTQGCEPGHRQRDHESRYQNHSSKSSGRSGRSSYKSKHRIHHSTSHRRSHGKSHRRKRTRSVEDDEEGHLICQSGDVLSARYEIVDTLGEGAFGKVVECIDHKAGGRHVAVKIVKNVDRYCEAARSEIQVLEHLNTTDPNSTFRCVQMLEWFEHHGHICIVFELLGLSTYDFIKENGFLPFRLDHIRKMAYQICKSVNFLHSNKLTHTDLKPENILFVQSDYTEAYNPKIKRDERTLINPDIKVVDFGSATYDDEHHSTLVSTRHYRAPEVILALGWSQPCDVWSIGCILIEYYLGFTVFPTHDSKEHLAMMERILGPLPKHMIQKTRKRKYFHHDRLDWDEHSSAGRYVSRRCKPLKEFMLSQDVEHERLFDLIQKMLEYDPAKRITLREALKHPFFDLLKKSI

What is called inhibition is the share of the control response that was lost under treatment. As to `CN(C(=O)CN1CCOCC1)c1ccc2sc3c(-c4cccc5c(=O)cc(N6CC7CCC(C6)O7)oc45)cccc3c2c1` [NU5455], the inhibition at 1 µM was found to be 11.7%.
